Measured values: patent publication US8796292B2, “Selective antibacterials for clostridium difficile infections” (GLSynthesis Inc., priority 2009, dated 2014)
≈ marks a conversion by molar mass, not a printed value. Where two headings read alike, the source gives them in different places.

Experiments:
Experiment in all cases: agar dilution MIC assay of anaerobic bacteria
L. casei = format: cell-based, Lactobacillus casei; details: Lacticaseibacillus casei, Micromyx Number 1722, Table 1
Description: (§1) Each compound was assayed against a panel of anaerobic bacteria in culture, consisting of Gram-positive organisms, such as Lactobacilli, Bifidobacteria, Clostridium spp., and Gram-negative bacteria, such as […] fragilis spp., according to guidelines of the Clinical and Laboratory Standards Institute (CLSI document M11-A7, CLSI, Wayne, Pa., 2007). […] One tenth mL of diluted bacteria containing 500-1000 colony-forming units (CFU) was plated and spread, and the plates incubated at 37° C. for 24-48 hours. MIC (minimum inhibitory concentration) is equivalent to the lowest concentration in μg/ml at which growth, i.e., colony formation, is not observed. […] Bacteria were assayed using a reference agar dilution method. Drug dilutions and drug-supplemented agar plates were prepared manually. The test organisms were maintained frozen at −80° C. The isolates were sub-cultured on Supplemented Brucella Agar (SBA) plates in a Bactron II anaerobic chamber and incubated for 48 hours at 35-36° C. in the Bactron II anaerobe chamber. Following inoculation, the drug-supplemented plates were incubated at 35° C. for 48 hours in the anaerobic environment (5% hydrogen, 5% carbon dioxide, 90% nitrogen) of the Bactron II. The MIC in μg/ml was read per Clinical and Laboratory Standards Institute guidelines.

Ba. fragilis = format: cell-based; details: Bacteroides fragilis, Micromyx Number 0123 (ATCC strain)
Description: as §1

L. acidophilus = format: cell-based; details: Lactobacillus acidophilus, Micromyx Number 0681, Table 1
Description: as §1

Bi. brevi = format: cell-based, Bifidobacterium brevi; details: Bifidobacterium; Bi. brevi, Micromyx Number 3967, Table 1
Description: as §1

Bi. longum = format: cell-based, Bifidobacterium longum; details: Bifidobacterium longum; Bi. longum, Micromyx Number 3968, Table 1; read-out: MIC
Description: as §1

E. lentum = format: cell-based, Eubacterium lentum; details: Eggerthella lenta; E. lentum, Micromyx Number 1274, Table 1; read-out: MIC
Description: as §1

C. difficile = format: cell-based, Clostridium difficile; details: Clostridioides difficile, read-out: MIC
Description: as §1

What does the source list for `CN[C@H](CC(C)C)C(=O)N[C@H]1C(=O)N[C@@H](CC(N)=O)C(=O)N[C@H]2C(=O)N[C@H]3C(=O)N[C@H](C(=O)N[C@H](C(=O)O)c4cc(O)cc(O)c4-c4cc3ccc4O)[C@H](O)c3ccc(c(Cl)c3)Oc3cc2cc(c3O[C@@H]2O[C@H](CO)[C@@H](O)[C@H](O)[C@H]2O[C@H]2C[C@](C)(N)[C@H](O)[C@H](C)O2)Oc2ccc(cc2Cl)[C@H]1O` [vancomycin, reference compound]?
MIC (L. casei): > 16 µg/mL; MIC (Ba. fragilis; B. fragilis, Table 2): 32 µg/mL (≈ 22.1 µM); MIC (Ba. fragilis; Ba. fragilis, Gram negative, Table 1): > 16 µg/mL; MIC (L. acidophilus): 2 µg/mL (≈ 1.38 µM); MIC (Bi. brevi): 2 µg/mL (≈ 1.38 µM); MIC (Bi. longum): 0.5 µg/mL (≈ 0.345 µM); MIC (E. lentum): 2 µg/mL (≈ 1.38 µM); MIC (C. difficile; C. diff. Strain no. 18285, Table 4): 1 µg/mL (≈ 0.69 µM); MIC (C. difficile; C. diff. Strain no. 19265, Table 4): 1 µg/mL (≈ 0.69 µM); MIC (C. difficile; C. diff. Strain no. 19273, Table 4): 1 µg/mL (≈ 0.69 µM); MIC (C. difficile; C. diff. Strain no. 19281, Table 4): 1 µg/mL (≈ 0.69 µM); MIC (C. difficile; C. diff. Strain no. 19291, Table 4): 1 µg/mL (≈ 0.69 µM); MIC (C. difficile; C. diff. Strain no. 19369, Table 4): 1 µg/mL (≈ 0.69 µM); MIC (C. difficile; C. diff. Strain no. 19382, Table 4): 4 µg/mL (≈ 2.76 µM); MIC (C. difficile; C. diff. Strain no. 19540, Table 4): 1 µg/mL (≈ 0.69 µM); MIC (C. difficile; C. diff. Strain no. 19580, Table 4): 4 µg/mL (≈ 2.76 µM); MIC (C. difficile; C. diff. Strain no. 19680, Table 4): 1 µg/mL (≈ 0.69 µM); MIC (C. difficile; C. diff. Strain no. 19681, Table 4): 2 µg/mL (≈ 1.38 µM); MIC (C. difficile; C. diff. Strain no. 19683, Table 4): 8 µg/mL (≈ 5.52 µM); MIC (C. difficile; C. diff. Strain no. 19687, Table 4): 1 µg/mL (≈ 0.69 µM); MIC (C. difficile; C. diff. Strain no. 20066, Table 4): 4 µg/mL (≈ 2.76 µM); MIC (C. difficile; C. diff. Strain no. 20152, Table 4): 1 µg/mL (≈ 0.69 µM); MIC (C. difficile; C. diff. Strain no. 20307, Table 4): 2 µg/mL (≈ 1.38 µM); MIC (C. difficile; C. diff. Strain no. 20494, Table 4): 4 µg/mL (≈ 2.76 µM); MIC (C. difficile; C. diff. Strain no. 20680, Table 4): 1 µg/mL (≈ 0.69 µM); MIC (C. difficile; C. diff. Strain no. 20934, Table 4): 4 µg/mL (≈ 2.76 µM); MIC (C. difficile; C. diff. Strain no. 21099, Table 4): 2 µg/mL (≈ 1.38 µM); MIC (C. difficile; C. diff., Micromyx Number 3579, Table 2): 1 µg/mL (≈ 0.69 µM); MIC (C. difficile; C. diff., Micromyx Number 3580, Table 2): 1 µg/mL (≈ 0.69 µM); MIC (C. difficile; C. diff., Micromyx Number 3581, Table 2): 4 µg/mL (≈ 2.76 µM); MIC (C. difficile; C. diff., Micromyx Number 3582 (ATCC strain), Table 2): 2 µg/mL (≈ 1.38 µM); MIC (C. difficile; C. difficile, Micromyx Number 1209, Table 1): 1 µg/mL (≈ 0.69 µM); MIC (C. difficile; C. difficile, Micromyx Number 3579, Table 1): 1 µg/mL (≈ 0.69 µM); MIC (C. difficile; C. difficile, Micromyx Number 3580, Table 1): 1 µg/mL (≈ 0.69 µM); MIC (C. difficile; C. difficile, Micromyx Number 3581, Table 1): 1 µg/mL (≈ 0.69 µM); MIC (C. difficile; C. difficile, Micromyx Number 3582, Table 1): 0.25 µg/mL (≈ 0.173 µM); MIC (C. difficile; C. difficile, Micromyx Number 3584, Table 1): 0.5 µg/mL (≈ 0.345 µM); MIC (C. difficile; C. difficile, Micromyx Number 3585, Table 1): 0.5 µg/mL (≈ 0.345 µM); MIC (C. difficile; C. difficile, Micromyx Number 3586, Table 1): 0.5 µg/mL (≈ 0.345 µM); MIC (C. difficile; C. difficile, Micromyx Number 3587, Table 1): 1 µg/mL (≈ 0.69 µM); MIC (C. difficile; C. difficile, Micromyx Number 3588, Table 1): 2 µg/mL (≈ 1.38 µM); MIC (C. difficile; C. difficile, Micromyx Number 3589, Table 1): 0.5 µg/mL (≈ 0.345 µM); MIC (C. difficile; C. difficile, Micromyx Number 3590, Table 1): 1 µg/mL (≈ 0.69 µM); MIC (C. difficile; C. difficile, Micromyx Number 3591, Table 1): 2 µg/mL (≈ 1.38 µM); MIC (C. difficile; C. difficile, Micromyx Number 3593, Table 1): 0.5 µg/mL (≈ 0.345 µM); MIC (C. difficile; C. difficile, Micromyx Number 3594, Table 1): 1 µg/mL (≈ 0.69 µM); MIC (C. difficile; C. difficile, Micromyx Number 3595, Table 1): 1 µg/mL (≈ 0.69 µM); MIC (C. difficile; C. difficile, Micromyx Number 4381 (ATCC strain), Table 1): 1 µg/mL (≈ 0.69 µM)
